Measurements as given in patent US20260176284A1, “Compounds with Anti-KRAS Mutated Tumor Activity” (Trasveda Ltd., priority 2022, published 2026).

Experiments:
[1] = tested on: human pancreatic cancer cells HPAC (carrying KRas G12D mutant protein); experiment: In vivo pharmacodynamics, subcutaneous xenograft of human pancreatic cancer cells HPAC; settings: NOD/SCID mice, 50 mpk, PO; for Tumor volume (mm3) (Day 20): BID × 21; for TGI (%): BID × 21, Day 20
Protocol: The following materials were used in this experiment: NOD/SCID mice, 6-8 weeks old, female, Jiangsu Ji Cai Yao Kang Biotechnology Co., Ltd.; HPAC cells (carrying KRas G12D mutant protein, ATCC); Captisol (Wuhan Fengyao Tonghui Chemical Products Co., Ltd., Cas #182410-00-0); Sodium acetate (aladdin); MC (sigma, 9004-67-5).
The experiment was carried out as follows: Female NOD/SCID mice aged 6-8 weeks were subcutaneously inoculated with 1-10^7 HPAC cells on the right posterior side of the back, with an inoculation volume of 0.1 mL. When the tumors grew to an average volume of 150 mm^3, the mice were randomly grouped for administration according to the tumor size and body weight. The day of administration was regarded as day 0. The administration was carried out once a day. The test compound was administered by tail vein injection or gavage, with 5 mice in each group at a dose of 10 mg/kg. The control group was administered with an equal volume of the solvent control by tail vein injection or gavage.
During the experiment, the tumor volume and body weight were measured twice a week. The formula for calculating the tumor volume was: Tumor volume (mm^3)=0.5×(tumor major axis×tumor minor axis^2). The average tumor inhibition rate TGI %=[(average tumor volume of the control group−average initial tumor volume of the control group)−(average tumor volume of the administration group−average initial tumor volume of the administration group)]/(average tumor volume of the control group−average initial tumor volume of the control group).

[2] = tested on: KRAS G12D mutated AGS human gastric adenocarcinoma cells; experiment: Proliferation inhibition of KRAS G12D mutant AGS cells, another experiment with similar protocol (includes MRTX1133); format: cell-based; settings: Homo sapiens
Protocol: In another experiment, using a protocol similar to the one described above, the inhibitory activity of some representative compounds of the present invention against KRAS G12D mutated AGS human gastric adenocarcinoma cells was determined.
The synthesis of compound MRTX1133 was performed according to the method described in J. Med. Chem. 2022, 65, 4, 3123-3133.

[3] = tested on: KRAS-G12D mutated human colon carcinoma cells GP2d; experiment: Antitumor effect, subcutaneous xenograft of KRAS-G12D mutated human colon carcinoma cells GP2d; format: in vivo; settings: BALB/c nude mice, 10 mg/kg, gavage, twice a day; for TGI (%): Day 21
Protocol: GP2d cells were purchased from Nanjing Kebai Biotechnology Co., Ltd. BALB/c nude mice, female, were purchased from Jiangsu GemPharmatech LLC. GP2d cells were cultured in culture medium containing DMEM and 10% FBS. The cells in the logarithmic growth phase were collected and resuspended in PBS to an appropriate concentration for subcutaneous tumor inoculation in mice. The experimental mice were subcutaneously inoculated on the right posterior side of the back. The inoculation dose of GP2d cells was 1×10^7 cells per mouse, and the cells were resuspended in a 1:1 mixture of PBS and Matrigel (the inoculation volume was 0.1 mL). When the average tumor volume grew to 150 mm^3, the mice were randomly grouped for administration according to the tumor size and body weight. Administration was started immediately after grouping, and the day of administration was regarded as day 0. The administration was carried out twice a day by gavage, at a dose of 10 mg/kg or a solvent control (0.5% Tween 80+99.5% of (0.5% MC (400 cp))). During the experiment, the body weight of the mice and the size of the tumors were measured twice a week.
The formula for calculating the tumor size: Tumor volume (mm^3)=0.5×(long diameter of tumor×(short diameter of tumor)^2).
Relative tumor inhibition rate TGI (%): TGI %=[1−(average tumor volume at the end of administration of the treatment group−average tumor volume at the beginning of administration of the treatment group)/(average tumor volume at the end of administration of the vehicle control group −average tumor volume at the beginning of administration of the vehicle control group)]×100%.

[4] = Mouse pharmacokinetics (IV and PO); format: in vivo; settings: 10 mg/kg, male CD-1 mice, PO (gavage), 1 mg/mL at 10 mL/kg, plasma
Protocol: The pharmacokinetic properties of the compounds of the present invention were evaluated through a mouse pharmacokinetic experiment.
Male CD-1 mice, aged 6-8 weeks old, were purchased from Zhejiang Vital River Laboratory Animal Co., Ltd.
IV administration group: The compound was formulated into a sodium acetate buffer solution (10 mM sodium acetate solution, adjusted to pH 4.0 with acetic acid) containing 20% Captisol (sulfobutyl β-cyclodextrin) so that the final concentration of each compound was 0.6 mg/mL. The drug formulation was injected into the tail vein of CD-1 mice at an injection volume of 5 mL/kg. After administration, blood samples were collected from the submandibular vein or by other appropriate methods at 5 min, 15 min, 30 min, 1 h, 2 h, 4 h, 6 h, 8 h, and 24 h. The blood samples were centrifuged at a low temperature for 6 minutes, and the plasma was collected and stored at −80° C. for testing. The PO administration group formulated the compound into a solvent of 0.5% Tween 80+99.5% (0.5% MC (400 cp)) or 5% DMSO+95% (0.5% MC (400 cp)) so that the final concentration of each compound was 1 mg/mL. The drug formulation was administered to CD-1 mice by gavage at a volume of 10 mL/kg. After administration, blood samples were collected from the submandibular vein or by other appropriate methods at 15 min, 30 min, 1 h, 2 h, 4 h, 6 h, 8 h, and 24 h. The blood samples were centrifuged at a low temperature for 6 minutes, and the plasma was collected and stored at −80° C. for testing.
10 μL of the plasma sample was taken, and 200 μL of methanol containing an internal standard was added as a precipitating agent to precipitate plasma proteins and extract the compounds to be tested in the plasma. After centrifugation at a low temperature, 10 μL of the supernatant was injected, and the drug blood concentration was analyzed by LC-MS/MS. The pharmacokinetic parameters were calculated using Winnonlin based on the drug concentration data at different time points.

C#Cc1c(F)ccc2cc(O)cc(-c3c(F)cc4c(N5CC6CCC(C5)N6)nc(OC[C@]5(C)CN(C)CC/C5=C\F)nc4c3F)c12 (atropisomer, axis not shown; (Ra)) [Example 77, (Ra)-4-(4-((1R,5S)-3,8-diazabicyclo[3.2.1]octan-3-yl)-6,8-difluoro-2-(((S,E) 4-(fluoromethylene)-1,3-dimethylpiperidin-3-yl)methoxy)quinazolin-7-yl)-5-ethynyl-6-fluoronaphthalen-2-ol]
Tumor volume (mm3) (Day 20) [1]: 255 mm3
TGI (%) [1]: 83%
IC50 [2]: 4 nM

C#Cc1c(F)ccc2cc(O)cc(-c3nc(OC)c4c(N5C[C@H]6CC[C@@H](C5)N6)nc(OC[C@]5(C)CN(C)CC/C5=C\F)nc4c3F)c12 [Example 265, 4-(4-((1R,5S)-3,8-diazabicyclo[3.2.1]octan-3-yl)-8-fluoro-2-(((S,E)-4-(fluoromethylene)-1,3-dimethylpiperidin-3-yl)methoxy)-5-methoxypyrido[4,3-d]pyrimidin-7-yl)-5-ethynyl-6-fluoronaphthalen-2-ol]
Tumor volume (mm3) (Day 20) [1]: 113 mm3
TGI (%) [1]: 106%
IC50 [2]: 2 nM

[2H]C([2H])([2H])N1CC[C@H](C(F)F)[C@](C)(C([2H])([2H])Oc2nc(N3CC4CCC(C3)N4)c3cc(Cl)c(-c4cccc5sc(N)c(C#N)c45)c(F)c3n2)C1 (single isomer, unassigned) [Example 315-1]
Tumor volume (mm3) (Day 21) [3]: 325 mm3
TGI (%) [3]: 80%

C#Cc1c(F)ccc2cc(O)cc(-c3nc(OC)c4c(N5C[C@H]6CC[C@@H](C5)N6)nc(OC[C@]5(C)CN(C)CC[C@@H]5C(F)F)nc4c3F)c12 [Example 261, 4-(4-((1R,5S)-3,8-diazabicyclo[3.2.1]octan-3-yl)-2-(((3S,4S)-4-(difluoromethyl)-1,3-dimethylpiperidin-3-yl)methoxy)-8-fluoro-5-methoxypyrido[4,3-d]pyrimidin-7-yl)-5-ethynyl-6-fluoronaphthalen-2-ol]
Tumor volume (mm3) (Day 20) [1]: 117 mm3
TGI (%) [1]: 105%
IC50 [2]: 2 nM

CN1CC[C@H](C(F)F)[C@](C)(COc2nc(N3CC4CCC(C3)N4)c3cc(Cl)c(-c4c(F)ccc5sc(N)c(C#N)c45)c(F)c3n2)C1 (single isomer, unassigned) [Example 325-1]
Tumor volume (mm3) (Day 21) [3]: 228 mm3
TGI (%) [3]: 91%
IC50 [2]: 2 nM

C#Cc1c(F)ccc2cc(O)cc(-c3nc(C#C)c4c(N5CC6CCC(C5)N6)nc(OC[C@]5(C)CN(C)CC/C5=C\F)nc4c3F)c12 [Example 332]
Tumor volume (mm3) (Day 21) [3]: 419 mm3
TGI (%) [3]: 70%
IC50 [2]: 1 nM

[2H]C([2H])([2H])N1CC/C(=C\F)[C@](C)(COc2nc(N3C[C@H]4CC[C@@H](C3)N4)c3cnc(-c4cc(O)cc5ccc(F)c(C#C)c45)c(F)c3n2)C1 [Example 306, 4-(4-((1R,5S)-3,8-diazabicyclo[3.2.1]octan-3-yl)-8-fluoro-2-(((S,E)-4-(fluoromethylene)-3-methyl-1-(methyl-d3)piperidin-3-yl)methoxy)pyrido[4,3-d]pyrimidin-7-yl)-5-ethynyl-6-fluoronaphthalen-2-ol]
AUC(0-inf) [4]: 801 ng·h/mL
AUC(0-t) [4]: 759 ng·h/mL
half-life [4]: 7.17 h
IC50 [2]: 5 nM

C#Cc1c(F)ccc2cc(O)cc(-c3c(F)cc4c(N5CC6CCC(C5)N6)nc(OC[C@]5(C)CN(C)CC[C@@H]5C(F)F)nc4c3F)c12 (atropisomer, axis not shown; (Ra)) [Example 46-3, (Ra)-4-(4-((1R,5S)-3,8-diazabicyclo[3.2.1]octan-3-yl)-2-(((3S,4S)-4-(difluoromethyl)-1,3-dimethylpiperidin-3-yl)methoxy)-6,8-difluoroquinazolin-7-yl)-5-ethynyl-6-fluoronaphthalen-2-ol]
Tumor volume (mm3) (Day 20) [1]: 135 mm3
TGI (%) [1]: 102%
AUC(0-inf) [4]: 414 ng·h/mL
AUC(0-t) [4]: 384 ng·h/mL
half-life [4]: 10.8 h
IC50 [2]: 7 nM

CN1CC/C(=C\F)[C@](C)(COc2nc(N3CC4CCC(C3)N4)c3cc(Cl)c(-c4cccc5sc(N)c(C#N)c45)c(F)c3n2)C1 (single isomer, unassigned) [Example 313-1]
Tumor volume (mm3) (Day 21) [3]: 256 mm3
TGI (%) [3]: 88%

C#Cc1c(F)ccc2cc(O)cc(-c3ncc4c(N5C[C@H]6CC[C@@H](C5)N6)nc(OC[C@]5(C)CN(C)CC[C@@H]5C(F)F)nc4c3F)c12 [Example 105, 4-(4-((1R,5S)-3,8-diazabicyclo[3.2.1]octan-3-yl)-2-(((3S,4S)-4-(difluoromethyl)-1,3-dimethylpiperidin-3-yl)methoxy)-8-fluoropyrido[4,3-d]pyrimidin-7-yl)-5-ethynyl-6-fluoronaphthalen-2-ol]
Tumor volume (mm3) (Day 20) [1]: 122 mm3
TGI (%) [1]: 104%
IC50 [2]: 6 nM
